The values below come from ChEMBL document CHEMBL3045195, “Comparison of the activity of non-steroidal ecdysone agonists between dipteran and lepidopteran insects, using cell-based EcR reporter assays” (Pest Manag Sci, 2010).

Structures are written as SMILES. Calls of active or inactive are those of the source. The rule behind the calls is not given here.

Format in all cases: cell-based
Test [1] deals with T1, Ecdysone receptor (Drosophila melanogaster) (UniProt P34021+P20153). As to the kind of experiment: (§1) Agonist activity at ecdysone receptor in Drosophila melanogaster S2 cells after 24 hr by luciferase reporter gene assay.
For test [2], the target named is T2, Ecdysone receptor (Drosophila melanogaster, UniProt P20153+P34021).
T2 sequence (P34021 whole entry): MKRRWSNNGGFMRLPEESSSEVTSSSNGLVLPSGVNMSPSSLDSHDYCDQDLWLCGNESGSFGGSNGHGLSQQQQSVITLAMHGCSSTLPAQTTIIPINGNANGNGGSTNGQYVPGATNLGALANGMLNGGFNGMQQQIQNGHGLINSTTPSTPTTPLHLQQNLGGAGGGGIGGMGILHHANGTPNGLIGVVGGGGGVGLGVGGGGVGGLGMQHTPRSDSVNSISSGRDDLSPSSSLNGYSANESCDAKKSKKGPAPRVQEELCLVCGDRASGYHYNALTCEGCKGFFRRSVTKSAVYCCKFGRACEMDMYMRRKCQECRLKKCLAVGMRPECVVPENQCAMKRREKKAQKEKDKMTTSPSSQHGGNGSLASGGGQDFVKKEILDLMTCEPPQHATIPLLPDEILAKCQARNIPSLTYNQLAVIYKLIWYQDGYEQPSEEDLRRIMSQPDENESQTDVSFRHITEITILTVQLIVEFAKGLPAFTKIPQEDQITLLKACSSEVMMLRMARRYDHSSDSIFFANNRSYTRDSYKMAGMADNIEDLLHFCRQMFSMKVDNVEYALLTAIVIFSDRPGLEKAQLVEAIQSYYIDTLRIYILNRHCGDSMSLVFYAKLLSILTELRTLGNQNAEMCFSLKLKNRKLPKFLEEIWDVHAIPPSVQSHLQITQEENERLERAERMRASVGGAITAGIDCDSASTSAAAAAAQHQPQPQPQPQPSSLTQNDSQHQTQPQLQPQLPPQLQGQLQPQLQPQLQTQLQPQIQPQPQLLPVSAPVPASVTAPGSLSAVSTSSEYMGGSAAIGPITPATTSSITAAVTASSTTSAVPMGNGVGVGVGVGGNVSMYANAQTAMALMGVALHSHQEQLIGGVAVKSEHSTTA
T2 sequence (P20153 whole entry): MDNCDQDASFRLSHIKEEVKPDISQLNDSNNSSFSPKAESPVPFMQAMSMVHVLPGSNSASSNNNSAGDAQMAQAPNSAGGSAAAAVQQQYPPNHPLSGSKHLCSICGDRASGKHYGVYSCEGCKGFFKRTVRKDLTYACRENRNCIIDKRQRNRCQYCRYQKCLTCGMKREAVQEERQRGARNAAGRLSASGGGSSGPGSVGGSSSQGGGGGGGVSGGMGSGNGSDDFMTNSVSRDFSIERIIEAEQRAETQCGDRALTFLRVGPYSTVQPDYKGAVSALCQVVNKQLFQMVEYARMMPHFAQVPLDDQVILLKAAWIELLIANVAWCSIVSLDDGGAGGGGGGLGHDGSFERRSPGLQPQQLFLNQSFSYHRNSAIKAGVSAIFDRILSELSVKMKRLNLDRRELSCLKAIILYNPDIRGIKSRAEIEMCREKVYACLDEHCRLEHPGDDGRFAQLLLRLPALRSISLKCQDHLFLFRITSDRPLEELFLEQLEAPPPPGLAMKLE
The test is described as §1.

Test [3] deals with T3, Ecdysone receptor (Bombyx mori, UniProt P49881).
T3 sequence (P49881 whole entry): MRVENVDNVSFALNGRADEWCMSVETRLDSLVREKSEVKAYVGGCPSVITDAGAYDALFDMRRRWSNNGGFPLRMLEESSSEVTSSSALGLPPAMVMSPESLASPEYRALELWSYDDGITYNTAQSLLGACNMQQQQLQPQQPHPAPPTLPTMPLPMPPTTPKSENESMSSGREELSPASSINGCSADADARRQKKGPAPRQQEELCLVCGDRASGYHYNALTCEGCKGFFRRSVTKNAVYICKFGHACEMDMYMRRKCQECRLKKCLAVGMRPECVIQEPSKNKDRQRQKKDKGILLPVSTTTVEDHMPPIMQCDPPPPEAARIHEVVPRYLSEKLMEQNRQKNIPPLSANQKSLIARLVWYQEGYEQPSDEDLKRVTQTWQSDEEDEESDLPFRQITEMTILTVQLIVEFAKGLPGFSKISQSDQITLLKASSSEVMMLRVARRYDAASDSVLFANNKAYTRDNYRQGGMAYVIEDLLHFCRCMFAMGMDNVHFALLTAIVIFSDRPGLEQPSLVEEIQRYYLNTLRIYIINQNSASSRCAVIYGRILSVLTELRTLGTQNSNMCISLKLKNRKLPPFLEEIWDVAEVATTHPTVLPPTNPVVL
Kind of test: Agonist activity at ecdysone receptor in Bombyx mori Bm5 cells after 24 hr by luciferase reporter gene assay.

Test [4] deals with T1, Ecdysone receptor (Drosophila melanogaster). Kind of test: Agonist activity at ecdysone receptor in Drosophila melanogaster S2 cells at 100 uM after 24 hr by luciferase reporter gene assay relative to 20-hydroxyecdysone. A general note: A reporter such as luciferase makes a cellular process visible.

As to `CCc1ccc(C(=O)NC(C(=O)c2cc(C)cc(C)c2)C(C)(C)C)cc1` (racemic), the pEC50 entry in test [1] is “inactive”.
Usually EC50 stands for the concentration that produces a half-maximal response. Higher therefore signals weaker potency. With `CCc1ccc(C(=O)NN(C(=O)c2cccc3ccccc23)C(C)(C)C)cc1`, the EC50 at Ecdysone receptor [2] is 10.5 µM; on Ecdysone receptor [3], 13.2 nM. In test [4], this compound returned an Efficacy of 53%.
In the case of `CCc1ccc(C(=O)NN(C(=O)c2ccccc2)C(C)(C)C)cc1`, the results for the EC50 on Ecdysone receptor [2] and on Ecdysone receptor [3] were 5.5 µM and 4.9 nM, respectively. In test [4], this compound had an Efficacy of 52%.
With `Cc1cccc(C(=O)NN(C(=O)c2ccccc2Cl)C(C)(C)C)c1`, the EC50 was 107 µM at Ecdysone receptor [2] and 603 nM on Ecdysone receptor [3]. For the same compound, in test [4], the Efficacy amounted to 48%.
In the same order, the values of `CC(C)(C)N(NC(=O)c1cccc(Br)c1)C(=O)c1ccccc1Cl` are 13.2 µM, 191 nM and 80%.
`O=C(NN(C(=O)c1ccccc1)c1ccccc1)c1ccccc1`: the EC50 on Ecdysone receptor [2] was over 100 µM; at Ecdysone receptor [3], 25700 nM. Also, the Efficacy in test [4] is 6%.
In the same order, the values of `CC(C)(C)N(NC(=O)c1ccccc1F)C(=O)c1ccccc1Cl` are 33.9 µM, 51.3 nM and 73%.
For the compound `O=C(NN(CC1CCCCC1)C(=O)c1ccccc1)c1ccccc1`, the EC50 is over 100 µM on Ecdysone receptor [2] and 1700 nM at Ecdysone receptor [3]. The Efficacy in test [4] worked out at 1%.
As to `CC(C)(C)N(NC(=O)c1cccc(Cl)c1Cl)C(=O)c1ccccc1Cl`, the EC50 on Ecdysone receptor [2] is 7.76 µM; at Ecdysone receptor [3] it was 9.33 nM. The compound further came in with an Efficacy in test [4] of 74%.
Consider `CCc1ccc(C(=O)NN(C(=O)C2CC=CCC2)C(C)(C)C)cc1` (configuration not stated), for which the EC50 is over 100 µM at Ecdysone receptor [2] and 1000 nM on Ecdysone receptor [3]. This compound also had an Efficacy in test [4] of 1%.
In the same order, the values of `CCOc1cccc(C(=O)NN(C(=O)c2cc(C)cc(C)c2)C(C)(C)C)c1C` are 12 µM, 52.5 nM and 71%.
As for `CC(C)(C)N(NC(=O)c1ccccc1)C(=O)c1ccc(Cl)cc1Cl`, the EC50 at Ecdysone receptor [2] is 148 µM; at Ecdysone receptor [3], 117 nM. Also, the Efficacy in test [4] came out at 40%.
Regarding `CC(C)(C)N(NC(=O)c1cccc(F)c1)C(=O)c1ccccc1Cl`, the figures for the EC50 at Ecdysone receptor [2] and at Ecdysone receptor [3] were 25.7 µM and 69.2 nM, respectively. In test [4], this compound returned an Efficacy of 76%.
As to `CCC(CC)(NC(=O)c1ccc2c(c1C)CCCO2)C(=O)c1cc(C)cc(C)c1`, the pEC50 result in test [1] was “inactive”.
Take `CC(C)(C)N(NC(=O)c1ccc(Cl)cc1)C(=O)c1ccccc1Cl`: the results for the 50% effective concentration (EC50) on Ecdysone receptor [2] and on Ecdysone receptor [3] were 81.3 µM and 115 nM, respectively. In test [4], this compound returned an Efficacy of 52%.
With `CC(C)(C)N(NC(=O)c1ccccc1Br)C(=O)c1ccccc1Cl`, the results for the EC50 at Ecdysone receptor [2] and on Ecdysone receptor [3] were 60.3 µM and 316 nM, respectively. In test [4], this compound showed an Efficacy of 59%.
In the case of `Cc1cc(C)cc(C(=O)N(NC(=O)c2ccccc2)C(C)(C)C)c1`, the results for the EC50 on Ecdysone receptor [2] and on Ecdysone receptor [3] were 66.1 µM and 69.2 nM, respectively. The same compound yielded an Efficacy in test [4] of 57%.
The matching figures for `CCCCCC(=O)NN(C(=O)c1cc(C)cc(C)c1)C(C)(C)C`: over 100 µM, 79.4 nM and 36%.
For the compound `CC(C)c1ccc(C(=O)NN(C(=O)c2ccccc2Cl)C(C)(C)C)cc1`, the EC50 on Ecdysone receptor [2] was 12 µM; at Ecdysone receptor [3], 24.5 nM. This compound registered an Efficacy in test [4] of 88%.
Turning to `CC(C)(C)N(NC(=O)c1cccc(C#N)c1)C(=O)c1ccccc1Cl`, the concentration giving a half-maximal response (EC50) on Ecdysone receptor [2] was 36.3 µM; at Ecdysone receptor [3], 955 nM. In addition, the Efficacy in test [4] was found to be 67%.
The matching figures for `O=C(NN(C(=O)c1ccccc1)C1CCCCC1)c1ccccc1`: over 100 µM, 891 nM and 18%.
In the same order, the values of `Cc1cccc(C(=O)NN(C(=O)c2ccccc2Cl)C(C)(C)C)c1C` are 11.5 µM, 20 nM and 76%.
On to `CC(C)(C)N(NC(=O)c1ccc(F)cc1)C(=O)c1ccccc1Cl`, for which the EC50 on Ecdysone receptor [2] is 37.2 µM; at Ecdysone receptor [3], 389 nM. The Efficacy in test [4] was 62%.
For `CC(C)(C)N(NC(=O)c1ccc(C#N)cc1)C(=O)c1ccccc1Cl`, the values for the EC50 at Ecdysone receptor [2] and at Ecdysone receptor [3] were 93.3 µM and 603 nM, respectively. Besides, in test [4], the Efficacy worked out at 52%.
In the same order, the values of `CCc1ccccc1C(=O)N(NC(=O)c1ccccc1)C(C)(C)C` are 97.7 µM, 589 nM and 50%.
Turning to `Cc1cc(C)c(Cl)c(C(=O)N(NC(=O)c2ccccc2)C(C)(C)C)c1`, on Ecdysone receptor [2], the EC50 was over 100 µM. The compound also displayed an Efficacy in test [4] of 2%.
In the case of `Cc1cc(C)cc(C(=O)C2(NC(=O)C(F)(F)F)CCCCC2)c1`, in test [1], the pEC50 result is “inactive”.
As to `CC(C)(C)N(Cc1ccccc1)NC(=O)c1ccccc1`, the EC50 at Ecdysone receptor [2] is over 100 µM. The same compound yielded an Efficacy in test [4] of 1%.
For `Cc1ccc(C(=O)NN(C(=O)c2ccccc2Cl)C(C)(C)C)cc1C`, the concentration for a half-maximal effect (EC50) was 66.1 µM at Ecdysone receptor [2] and 87.1 nM at Ecdysone receptor [3]. For the same compound, the Efficacy in test [4] came out at 60%.
As to `Cc1ccccc1C(=O)NN(C(=O)c1ccccc1Cl)C(C)(C)C`, the EC50 on Ecdysone receptor [2] is 25.7 µM; at Ecdysone receptor [3], 72.4 nM. The compound also showed an Efficacy in test [4] of 83%.
As for `COc1ccc(C(=O)NN(C(=O)c2ccccc2Cl)C(C)(C)C)cc1`, the concentration giving a half-maximal response (EC50) on Ecdysone receptor [2] is 11.2 µM; at Ecdysone receptor [3], 51.3 nM. Besides, the Efficacy in test [4] came out at 112%.
In the case of `CC(C)(C)N(NC(=O)c1ccccc1I)C(=O)c1ccccc1Cl`, the results for the half-maximal effective concentration (EC50) on Ecdysone receptor [2] and at Ecdysone receptor [3] were 87.1 µM and 1290 nM, respectively. In test [4], this compound displayed an Efficacy of 54%.
In the same order, the values of `COc1cccc(C(=O)NN(C(=O)c2ccccc2Cl)C(C)(C)C)c1C` are 16.6 µM, 15.5 nM and 77%.
On to `Cc1cc(C)cc(C(=O)N(NC(=O)CCC(C)C)C(C)(C)C)c1`, for which the EC50 was over 100 µM at Ecdysone receptor [2] and 91.2 nM on Ecdysone receptor [3]. In test [4], this compound displayed an Efficacy of 35%.
Consider `CCCCCCC(=O)NN(C(=O)c1ccccc1Cl)C(C)(C)C`, for which the EC50 at Ecdysone receptor [2] is over 100 µM; on Ecdysone receptor [3], 741 nM. In addition, the Efficacy in test [4] is 10%.
With `Cc1ccc(C)c(C(=O)NN(C(=O)c2ccccc2Cl)C(C)(C)C)c1`, the EC50 at Ecdysone receptor [2] is 107 µM; on Ecdysone receptor [3], 1620 nM. Besides, the Efficacy in test [4] is 46%.
On to `CCCCN(NC(=O)c1ccccc1)C(=O)c1ccccc1`, for which the EC50 at Ecdysone receptor [2] was over 100 µM; at Ecdysone receptor [3], 7080 nM. In test [4], this compound displayed an Efficacy of 4%.
Consider `COc1cccc(C(=O)NN(C(=O)c2ccccc2Cl)C(C)(C)C)c1`, for which the values for the EC50 at Ecdysone receptor [2] and on Ecdysone receptor [3] were 72.4 µM and 52.5 nM, respectively. In addition, the Efficacy in test [4] turned out to be 58%.
For `CC(C)CN(NC(=O)c1ccccc1)C(=O)c1ccccc1`, the EC50 was over 100 µM at Ecdysone receptor [2] and 2880 nM on Ecdysone receptor [3]. Besides, the Efficacy in test [4] worked out at 33%.
The matching figures for `COc1cccc(C(=O)NN(C(=O)c2cc(C)cc(C)c2)C(C)(C)C)c1`: 45.7 µM, 66.1 nM and 60%.
